Each structure is given as a SMILES string.

The target of the experiment is T1, α5-GABAA receptor (Homo sapiens, UniProt P18507+P31644).
T1 construct: expressed in transfected cells; host or cells: HEK293, monoclonal stably transfected line
As to the kind of experiment: Cell-level screening: whole cell patch clamp, inverse agonist efficacy on α5-GABAA receptor expressed in HEK293. The class given is cell-based. The note with it: drug 100 nM, GABA 0.05 μM, HEK293 expressing α5, β3 and γ2 subunits, clamped at −60 mV; read-out: Compound inverse agonist efficacy %. How it is done:
The inventors used electrophysiological methods to determine the inverse agonist efficacy of the drugs to be tested on the α5-GABAA receptor. The detailed methods are as follows:
Different subunits of GABAA receptors were expressed in human […] cell line 293 (HEK293) cell line. The cells were cultured in a culture medium and used as a cell model for screening pain inhibiting drugs. The α, β and γ subunits are necessary to form complete functional GABAA receptors. In this embodiment, the inventors had established the following cell model: α5 subunit (see GenBank Accession No. NM_000810.3 for protein sequences), β3 subunit (see GenBank Accession No. NM_000814.5 for protein sequences) and γ2 subunit (see GenBank Accession No. NM_000816.3 for protein sequences) were expressed in HEK293 cell line at the same time, followed by screening the monoclonal cell line. This cell line contained α5-GABAA receptor and had complete GABAA receptor function.
The monoclonal stably transfected HEK-293 cells expressing α5-GABAA receptor were cultured in 10 cm culture dishes and passaged when the cells grew to 80%-90%. During passaging, the culture medium was aspirated first, then 3 mL of DPBS phosphate buffer salt (Gibco™) was added to the culture dishes, and the culture dishes were shaken slightly, and DPBS was aspirated. 1 mL of trypsin (TrypLE Express, Gibco™) was added thereto, and the cells were digested at 37° C. for 1-2 minutes. Then 3 mL of complete medium (DMEM+10% FBS (Gibco™)) was added and the cells at the bottom of the culture dishes were dispersed. The cell suspension were transferred to a 15 mL centrifugal tube (Corning) and then centrifuged at 200 g for 3 minutes. The supernatant was discarded, 4 mL of complete medium was added, and the cells were gently blown and resuspended for use. If cell passaging was performed, the cell suspension was diluted at a ratio of 1:5 or 1:10. If cells for electrophysiology use were prepared, the cell suspension was diluted in a ratio of 1:12, then added into a 24-well dish (Corning™) in which glass slides were placed and pretreated with Poly-D-Lysine, and the cells were tested after being attached to the walls. The culture time of cells for electrophysiology use was no more than 48 hours.
Drug concentration setting: the final drug concentration used in drug screening was 100 nM, and the GABA concentration range was 0.05 μM. The final drug concentrations used in the dose-inversal agonistic efficiency (%) test were 0.3 nM, 3 nM, 10 nM, 30 nM, 100 nM and 300 nM. The whole cell patch clamp technique was used in electrophysiological experiments, which could refer to the literature (I. Lecker, Y. Yin, D. S. Wang and B. A. Orser, (2013) Potentiation of GABAA receptor activity by volatile anaesthetics is reduced by α5-GABAA receptor-preferring inverse agonists, British Journal of Anaesthesia 110 (S1): i73-i81). The components of extracellular solution (ECS) for electrophysiology use were as follows: 150 mM NaCl, 5 mM KCl, 2.5 mM CaCl2), 1 mM MgCl2, 10 mM HEPES and 10 mM glucose (pH 7.4); electrode internal solutions for electrophysiology use were as follows: 140 mM CsCl, 11 mM EGTA, 10 mM HEPES, 2 mM CaCl2), 1 mM MgCl2, 4 mM MgATP, 2 mM TEA (pH 7.3). The signal acquisition used an EPC-10 amplifier and the PatchMaster software (HEKA). The recording electrode was drawn using borosilicate glass, and the electrode resistance was 4 to 6 MΩ. The ALA-VC3-8PP™ system was used for extracellular administration. Separate cells that grew independently was selected for recording. During recording, the cell membrane potential was clamped at −60 mV. During experiment, an extracellular solution was applied to the cells for about 20 seconds. When the baseline reached to a stable state, the extracellular solution was switched to GABA. Then the current induced by GABA could be detected. […]

T1 sequence (P31644 32-462): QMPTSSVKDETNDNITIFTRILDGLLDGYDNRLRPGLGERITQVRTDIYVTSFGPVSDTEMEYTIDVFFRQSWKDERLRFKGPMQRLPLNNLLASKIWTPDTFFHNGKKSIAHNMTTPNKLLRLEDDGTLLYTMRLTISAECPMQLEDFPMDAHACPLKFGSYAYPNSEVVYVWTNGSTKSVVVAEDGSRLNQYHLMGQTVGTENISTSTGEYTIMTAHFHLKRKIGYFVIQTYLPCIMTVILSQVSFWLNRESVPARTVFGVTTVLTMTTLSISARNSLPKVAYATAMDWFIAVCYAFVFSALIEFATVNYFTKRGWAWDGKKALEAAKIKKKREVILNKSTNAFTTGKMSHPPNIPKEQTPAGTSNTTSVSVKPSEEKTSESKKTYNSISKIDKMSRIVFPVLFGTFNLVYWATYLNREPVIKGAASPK
T1 sequence (P28472 26-473 partner): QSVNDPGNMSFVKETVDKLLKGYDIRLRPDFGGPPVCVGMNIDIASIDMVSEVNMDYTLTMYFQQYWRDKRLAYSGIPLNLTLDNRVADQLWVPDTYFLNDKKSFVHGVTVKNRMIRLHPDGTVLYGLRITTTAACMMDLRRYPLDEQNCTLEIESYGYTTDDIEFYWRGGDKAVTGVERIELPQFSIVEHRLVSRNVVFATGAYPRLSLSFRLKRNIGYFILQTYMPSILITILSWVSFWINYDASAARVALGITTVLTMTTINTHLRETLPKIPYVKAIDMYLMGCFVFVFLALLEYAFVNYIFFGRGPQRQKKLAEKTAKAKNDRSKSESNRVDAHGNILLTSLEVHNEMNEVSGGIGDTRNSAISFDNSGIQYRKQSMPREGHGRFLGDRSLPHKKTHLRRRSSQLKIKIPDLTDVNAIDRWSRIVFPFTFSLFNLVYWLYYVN
T1 sequence (P18507 40-467 isoform P18507-1 limits assumed): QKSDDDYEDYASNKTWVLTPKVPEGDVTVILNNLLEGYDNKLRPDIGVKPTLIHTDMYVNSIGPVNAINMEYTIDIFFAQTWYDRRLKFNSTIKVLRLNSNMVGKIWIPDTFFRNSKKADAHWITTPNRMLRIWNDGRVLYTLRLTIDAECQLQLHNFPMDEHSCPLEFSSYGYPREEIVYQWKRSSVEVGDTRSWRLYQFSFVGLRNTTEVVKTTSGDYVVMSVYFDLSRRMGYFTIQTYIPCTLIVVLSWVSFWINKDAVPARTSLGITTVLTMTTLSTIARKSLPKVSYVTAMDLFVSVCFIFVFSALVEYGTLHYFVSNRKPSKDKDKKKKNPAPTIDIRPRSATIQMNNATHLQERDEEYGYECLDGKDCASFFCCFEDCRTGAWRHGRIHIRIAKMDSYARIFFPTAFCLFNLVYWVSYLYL

In the case of `COc1cc2nnc(-c3cc(C)on3)n2nc1OCc1ccc2cnccc2n1` [Embodiment 140], the inhibition at 0.1 µM was determined as 49.3%.
The same measure for `COc1cc2nnc(-c3cc(C)on3)n2nc1OCc1ccc2c(n1)CCN(C)C2=O` [Embodiment 142]: 50.2%.
Next, `COc1cc2nnc(-c3cc(C)on3)n2nc1OCc1ccc2c(n1)CCN(C(=O)CC#N)C2` [Embodiment 143]: 49.6%; `COc1cc2nnc(-c3cc(C)on3)n2nc1OCc1ccc2c(=O)n(C3COC3)ccc2n1` [Embodiment 144]: 42%.
The same measure for `CCOc1nccc2nc(COc3nn4c(-c5cc(C)on5)nnc4cc3OC)ccc12` [Embodiment 145]: 51.3%; for `COCCOc1nccc2nc(COc3nn4c(-c5cc(C)on5)nnc4cc3OC)ccc12` [Embodiment 146]: 33.4%.
Turning to `COCCn1ccc2nc(COc3nn4c(-c5cc(C)on5)nnc4cc3OC)ccc2c1=O` [Embodiment 147], the inhibition at 0.1 µM stood at 39.8%.
The same measure for `CCn1ccc2nc(COc3nn4c(-c5cc(C)on5)nnc4cc3OC)ccc2c1=O` [Embodiment 148]: 69.6%.
As for `COc1cc2nnc(-c3cc(C)on3)n2nc1OCc1ccc2c(n1)N(C)CCO2` [Embodiment 149], the inhibition at 0.1 µM was determined as 71.7%.
The same measure for `COCCCOc1nnc(COc2nn3c(-c4cc(C)on4)nnc3cc2OC)cc1C` [Embodiment 155]: 50.1%; for `COc1cc2nnc(-c3cc(C)on3)n2nc1OCc1cnc(OC2COC2)cn1` [Embodiment 157]: 46.8%.
As to `COCCNc1ccc(COc2nn3c(-c4cc(C)on4)nnc3cc2OC)nn1` [Embodiment 159], the inhibition at 0.1 µM worked out at 50.4%.
Turning to `COCC(C)Oc1ccc(COc2nn3c(-c4cc(C)on4)nnc3cc2OC)nn1` (stereo not shown) [Embodiment 161], the inhibition at 0.1 µM was 53.1%.
Next, `COc1cc2nnc(-c3cc(C)on3)n2nc1OCc1ccc(OCC2CCCO2)nn1` (stereo not shown) [Embodiment 165]: 49.8%.
`COc1cc2nnc(-c3cc(C)on3)n2nc1OCc1ccc(OCC2CCOCC2)nn1` [Embodiment 171]: the inhibition at 0.1 µM is 53.1%.
Next, `COc1cc2nnc(-c3cc(C)on3)n2nc1OCc1cc(OC2COC2)ccn1` [Embodiment 172]: 47.6%.
The same measure for `COc1cc2nnc(-c3cc(C)on3)n2nc1OCc1ccc(OC2COC2)cn1` [Embodiment 175]: 36%.
Next, `CCc1cn2nc(COc3nn4c(-c5cc(C)on5)nnc4cc3OC)ccc2n1` [Embodiment 176]: 50.1%; `COc1cc2nnc(-c3cc(C)on3)n2nc1OCc1cnc(OC2CCOCC2)cn1` [Embodiment 177]: 56.5%.
On to `COc1cc2nnc(-c3cc(C)on3)n2nc1OCc1cnc(OCC2CCCO2)cn1` (stereo not shown) [Embodiment 178], for which the inhibition at 0.1 µM came out at 36.7%.
The same measure for `COc1cc2nnc(-c3cc(C)on3)n2nc1OCc1ccc2c(n1)CCN(C1CC(F)(F)C1)C2` [Embodiment 184]: 33.9%; for `COc1cc2nnc(-c3cc(C)on3)n2nc1OCc1ccc2c(n1)CCN(Cc1nnc(C)o1)C2` [Embodiment 188]: 52.4%.
Next, `COCC(C)(C)N1CCc2nc(COc3nn4c(-c5cc(C)on5)nnc4cc3OC)ccc2C1` [Embodiment 190]: 38.3%.
The same measure for `COc1cc2nnc(-c3cc(C)on3)n2nc1OCc1ccc2c(n1)CCN(c1cc(C)on1)C2` [Embodiment 191]: 44%.
As for `COc1cc2nnc(-c3cc(C)on3)n2nc1OCc1ccc2c(n1)CCN(c1nnc(C)o1)C2` [Embodiment 192], the inhibition at 0.1 µM came out at 40.8%.
Next, `COc1cc2nnc(-c3cc(C)on3)n2nc1OCc1ccc2c(n1)CCN(CC13CC(C#N)(C1)C3)C2` [Embodiment 194]: 41.5%.
The same measure for `COc1cc2nnc(-c3cc(C)on3)n2nc1OCc1ccc2c(n1)CCN(C1CC(C#N)C1)C2` (stereo not shown) [Embodiment 195]: 45.8%; for `COc1cc2nnc(-c3cc(C)on3)n2nc1OCc1ccc2c(n1)CCN(CC(F)(F)CO)C2` [Embodiment 196]: 50.8%; for `COc1cc2nnc(-c3cc(C)on3)n2nc1OCc1ccc2c(n1)CCN(C1CN(C(C)=O)C1)C2` [Embodiment 199, 1-(3-(2-(((7-Methoxy-3-(5-methylisoxazol-3-yl)-[1,2,4]triazolo[4,3-b]pyridazin-6-yl)oxy)methyl)-7,8-dihydro-1,6-naphthyridin-6(5H)-yl)azetidin-1-yl)ethan-1-one]: 56.8%.
The same measure for `COc1cc2nnc(-c3cc(C)on3)n2nc1OCc1ccc2c(n1)CCN(C(=O)NC1CC(F)(F)C1)C2` [Embodiment 201, N-(3,3-Difluorocyclobutyl)-2-(((7-methoxy-3-(5-methylisoxazol-3-yl)-[1,2,4]triazolo[4,3-b]pyridazin-6-yl)oxy)methyl)-7,8-dihydro-1,6-naphthyridine-6(5H)-carboxamide]: 48.3%; for `COc1cc2nnc(-c3cc(C)on3)n2nc1OCc1ccc2c(n1)CCN(C(=O)N(C)CC(F)(F)F)C2` [Embodiment 204]: 49.7%; for `COc1cc2nnc(-c3cc(C)on3)n2nc1OCc1ccc2c(n1)CCN(S(=O)(=O)N(C)C)C2` [Embodiment 205, 2-(((7-Methoxy-3-(5-methylisoxazol-3-yl)-[1,2,4]triazolo[4,3-b]pyridazin-6-yl)oxy)methyl)-N,N-dimethyl-7,8-dihydro-1,6-naphthyridine-6(5H)-sulfonamide]: 52.5%.
On to `COc1cc2nnc(-c3cc(C)on3)n2nc1OCc1ccc2c(n1)CCN(C(=O)NCC(F)F)C2` [Embodiment 207], for which the inhibition at 0.1 µM was determined as 49.3%.
The same measure for `COc1cc2nnc(-c3cc(C)on3)n2nc1OCc1ccc2c(n1)CCN(S(C)(=O)=O)C2` [Embodiment 209]: 48.8%; for `COc1cc2nnc(-c3cc(C)on3)n2nc1OCc1ccc2nc(C3CCOCC3)cn2n1` [Embodiment 212]: 72.6%; for `COc1cc2nnc(-c3cc(C)on3)n2nc1OCc1ccc2nnc(C3CCOCC3)n2n1` [Embodiment 215]: 36.8%.
Next, `COc1cc2nnc(-c3cc(C)on3)n2nc1OCc1ccc2cnn(C)c2n1` [Embodiment 220]: 51.8%; `COc1cc2nnc(-c3cc(C)on3)n2nc1OCc1ccc2c(cnn2Cc2ccccc2)n1` [Embodiment 222]: 44.3%.
With `COc1cc2nnc(-c3cc(C)on3)n2nc1OCc1ccc2c(cnn2Cc2cc(C)on2)n1` [Embodiment 224], the inhibition at 0.1 µM worked out at 46.7%.
Turning to `COc1cc2nnc(-c3cc(C)on3)n2nc1OCc1ccc2nn(Cc3cc(C)on3)cc2n1` [Embodiment 225], the inhibition at 0.1 µM worked out at 74.4%.
Next, `COc1cc2nnc(-c3cc(C)on3)n2nc1OCc1ccc2nn(C3COC3)cc2n1` [Embodiment 226, 3-(7-Methoxy-6-((2-(oxetan-3-yl)-2H-pyrazolo[4,3-b]pyridin-5-yl)methoxy)-[1,2,4]triazolo[4,3-b]pyridazin-3-yl)-5-methylisoxazole]: 45.9%; `COc1cc2nnc(-c3cc(C)on3)n2nc1OCc1ccc2c(cnn2C2COC2)n1` [Embodiment 227]: 61.5%.
The same measure for `COc1cc2nnc(-c3cc(C)on3)n2nc1OCc1ccc2c(cnn2CCC#N)n1` [Embodiment 228]: 44.7%.

For the origin of these results see patent publication US12637468B2, “Substituted [1,2,4]triazolo[4,3-b]pyridazines as GABAA receptor modulators” (SHANGHAI SIMR BIOTECHNOLOGY CO., LTD., priority 2019, dated 2026).
